Assay results: ChEMBL document CHEMBL5291721, “A preclinical secondary pharmacology resource illuminates target-adverse drug reaction associations of marketed drugs” (Nat Commun, 2023)

Key:
[1] = biological target: Sodium-dependent noradrenaline transporter (Homo sapiens, UniProt P23975)
[2] = biological target: T1, Alpha-1A adrenergic receptor (Homo sapiens, UniProt P35348); assay type: functional, cell-based
T1 sequence (P35348 whole entry): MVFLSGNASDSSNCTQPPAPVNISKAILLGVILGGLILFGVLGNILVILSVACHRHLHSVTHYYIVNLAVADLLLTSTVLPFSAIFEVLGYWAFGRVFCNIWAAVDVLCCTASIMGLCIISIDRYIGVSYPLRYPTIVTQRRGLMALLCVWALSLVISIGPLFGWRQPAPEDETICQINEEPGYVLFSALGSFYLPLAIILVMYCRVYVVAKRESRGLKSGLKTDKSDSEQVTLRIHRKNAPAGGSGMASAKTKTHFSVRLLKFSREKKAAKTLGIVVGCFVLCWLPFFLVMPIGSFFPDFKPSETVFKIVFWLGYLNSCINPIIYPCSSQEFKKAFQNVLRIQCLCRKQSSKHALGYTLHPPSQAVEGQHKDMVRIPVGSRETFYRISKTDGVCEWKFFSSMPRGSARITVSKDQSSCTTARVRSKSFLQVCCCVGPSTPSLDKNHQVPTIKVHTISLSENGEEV

Progesterone receptor = biological target: T2, Progesterone receptor (Homo sapiens, UniProt P06401); assay type: functional
T2 sequence (P06401 whole entry): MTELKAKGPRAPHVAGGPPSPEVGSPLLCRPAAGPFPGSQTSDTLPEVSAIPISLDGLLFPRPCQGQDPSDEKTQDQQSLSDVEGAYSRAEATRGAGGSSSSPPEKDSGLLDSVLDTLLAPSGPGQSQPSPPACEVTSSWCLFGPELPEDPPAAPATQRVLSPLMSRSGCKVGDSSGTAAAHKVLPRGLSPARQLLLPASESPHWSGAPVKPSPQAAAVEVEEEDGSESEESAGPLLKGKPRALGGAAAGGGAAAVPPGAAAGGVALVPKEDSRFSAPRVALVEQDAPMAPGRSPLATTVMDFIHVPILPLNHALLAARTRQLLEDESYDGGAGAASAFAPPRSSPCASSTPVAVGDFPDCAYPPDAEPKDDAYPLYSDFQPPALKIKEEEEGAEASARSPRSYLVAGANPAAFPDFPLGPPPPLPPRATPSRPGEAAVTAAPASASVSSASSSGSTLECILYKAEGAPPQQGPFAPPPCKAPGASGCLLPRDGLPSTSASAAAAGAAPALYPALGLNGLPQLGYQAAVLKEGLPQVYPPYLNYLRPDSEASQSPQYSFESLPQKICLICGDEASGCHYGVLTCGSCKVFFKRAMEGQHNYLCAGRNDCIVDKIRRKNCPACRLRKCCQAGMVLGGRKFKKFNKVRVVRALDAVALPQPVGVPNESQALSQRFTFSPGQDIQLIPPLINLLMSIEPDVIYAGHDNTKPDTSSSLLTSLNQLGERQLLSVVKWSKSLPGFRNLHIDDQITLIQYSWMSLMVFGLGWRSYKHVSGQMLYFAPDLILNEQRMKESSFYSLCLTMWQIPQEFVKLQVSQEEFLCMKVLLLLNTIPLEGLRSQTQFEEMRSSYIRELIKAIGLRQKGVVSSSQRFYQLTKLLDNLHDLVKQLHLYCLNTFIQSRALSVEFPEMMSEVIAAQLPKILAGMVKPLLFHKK

Melanocortin receptor 3 = Melanocortin receptor 3 (Homo sapiens, UniProt P41968)
Sequence of Melanocortin receptor 3 (P41968 whole entry): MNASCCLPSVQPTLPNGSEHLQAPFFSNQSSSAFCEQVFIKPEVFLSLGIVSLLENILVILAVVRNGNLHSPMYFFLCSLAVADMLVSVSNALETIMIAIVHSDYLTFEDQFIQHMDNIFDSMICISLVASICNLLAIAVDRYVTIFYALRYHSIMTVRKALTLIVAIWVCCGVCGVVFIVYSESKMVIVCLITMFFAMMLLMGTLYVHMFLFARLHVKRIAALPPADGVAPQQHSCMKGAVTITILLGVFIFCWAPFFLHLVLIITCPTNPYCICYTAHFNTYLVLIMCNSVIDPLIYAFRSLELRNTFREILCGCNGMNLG

[3] = biological target: T3, Muscarinic acetylcholine receptor M1 (Homo sapiens, UniProt P11229); assay type: functional, cell-based
T3 sequence (P11229 whole entry): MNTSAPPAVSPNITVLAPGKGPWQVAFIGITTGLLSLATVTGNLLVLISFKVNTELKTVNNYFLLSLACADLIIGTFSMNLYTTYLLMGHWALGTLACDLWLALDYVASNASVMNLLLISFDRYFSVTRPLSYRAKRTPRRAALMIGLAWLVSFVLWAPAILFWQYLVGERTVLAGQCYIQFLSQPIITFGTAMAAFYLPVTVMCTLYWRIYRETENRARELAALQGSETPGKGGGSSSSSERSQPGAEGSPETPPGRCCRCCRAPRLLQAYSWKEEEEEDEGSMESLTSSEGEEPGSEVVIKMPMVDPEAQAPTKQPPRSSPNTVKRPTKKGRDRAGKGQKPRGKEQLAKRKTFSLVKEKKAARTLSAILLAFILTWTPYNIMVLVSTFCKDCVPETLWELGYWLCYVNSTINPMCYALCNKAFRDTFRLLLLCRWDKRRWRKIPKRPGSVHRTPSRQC

[4] = biological target: Kappa-type opioid receptor (Homo sapiens, UniProt P41145)
Sequence of Kappa-type opioid receptor (P41145 whole entry): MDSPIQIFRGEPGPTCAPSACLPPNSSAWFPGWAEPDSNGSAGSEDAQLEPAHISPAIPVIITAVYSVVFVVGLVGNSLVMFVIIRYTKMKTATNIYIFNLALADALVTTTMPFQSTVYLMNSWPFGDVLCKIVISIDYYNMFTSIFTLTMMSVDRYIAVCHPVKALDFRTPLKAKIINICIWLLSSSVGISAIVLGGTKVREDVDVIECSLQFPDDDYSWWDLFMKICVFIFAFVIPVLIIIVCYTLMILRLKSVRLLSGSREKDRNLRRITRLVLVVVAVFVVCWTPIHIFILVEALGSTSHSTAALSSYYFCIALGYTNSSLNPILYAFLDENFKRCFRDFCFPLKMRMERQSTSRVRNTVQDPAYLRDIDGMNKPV

[5] = biological target: Beta-1 adrenergic receptor (Homo sapiens, UniProt P08588); assay type: functional
Sequence of Beta-1 adrenergic receptor (P08588 whole entry): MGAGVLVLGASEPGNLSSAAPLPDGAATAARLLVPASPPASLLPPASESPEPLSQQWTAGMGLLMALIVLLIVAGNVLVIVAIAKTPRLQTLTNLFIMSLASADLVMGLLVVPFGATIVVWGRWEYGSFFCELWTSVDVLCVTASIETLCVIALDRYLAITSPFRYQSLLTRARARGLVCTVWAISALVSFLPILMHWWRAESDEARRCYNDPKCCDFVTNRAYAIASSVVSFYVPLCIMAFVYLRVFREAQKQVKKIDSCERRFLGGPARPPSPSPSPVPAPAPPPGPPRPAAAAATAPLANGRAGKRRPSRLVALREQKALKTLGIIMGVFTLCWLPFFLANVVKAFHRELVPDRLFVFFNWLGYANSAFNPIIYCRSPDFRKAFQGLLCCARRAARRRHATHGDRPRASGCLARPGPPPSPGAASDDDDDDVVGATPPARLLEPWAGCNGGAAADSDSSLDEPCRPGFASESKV

Motilin receptor = Motilin receptor (Homo sapiens, UniProt O43193)
Sequence of Motilin receptor (O43193 whole entry): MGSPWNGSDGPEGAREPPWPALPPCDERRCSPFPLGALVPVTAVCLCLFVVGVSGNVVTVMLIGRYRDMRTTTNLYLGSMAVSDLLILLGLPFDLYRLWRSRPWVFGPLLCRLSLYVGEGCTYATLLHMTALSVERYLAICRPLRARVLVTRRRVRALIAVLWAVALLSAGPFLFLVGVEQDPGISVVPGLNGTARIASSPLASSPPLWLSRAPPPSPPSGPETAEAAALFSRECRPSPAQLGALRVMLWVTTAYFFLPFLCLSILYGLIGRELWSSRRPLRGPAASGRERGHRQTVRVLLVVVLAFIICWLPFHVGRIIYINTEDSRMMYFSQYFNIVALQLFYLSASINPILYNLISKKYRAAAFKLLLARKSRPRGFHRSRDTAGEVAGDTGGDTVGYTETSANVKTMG

[6] = biological target: T1, Alpha-1A adrenergic receptor; assay type: functional, cell-based; remark: listed apart in the source
[7] = biological target: Gamma-aminobutyric acid receptor subunit alpha-1 (Rattus norvegicus, UniProt P62813)
Sequence of Gamma-aminobutyric acid receptor subunit alpha-1 (P62813 whole entry): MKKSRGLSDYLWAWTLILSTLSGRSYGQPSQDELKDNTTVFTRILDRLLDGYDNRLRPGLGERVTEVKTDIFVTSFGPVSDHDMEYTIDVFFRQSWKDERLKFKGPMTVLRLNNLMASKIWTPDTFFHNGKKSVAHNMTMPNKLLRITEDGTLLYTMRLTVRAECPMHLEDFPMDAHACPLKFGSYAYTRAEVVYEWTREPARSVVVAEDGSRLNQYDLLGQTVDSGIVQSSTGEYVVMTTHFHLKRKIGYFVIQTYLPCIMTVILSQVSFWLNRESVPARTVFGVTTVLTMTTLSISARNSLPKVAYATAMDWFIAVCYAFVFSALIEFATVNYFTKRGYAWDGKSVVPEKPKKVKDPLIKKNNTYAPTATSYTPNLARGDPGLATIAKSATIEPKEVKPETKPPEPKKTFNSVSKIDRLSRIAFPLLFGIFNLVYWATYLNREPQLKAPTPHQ

[8] = biological target: T4, Alpha-2C adrenergic receptor (Homo sapiens, UniProt P18825); assay type: functional
T4 sequence (P18825 whole entry): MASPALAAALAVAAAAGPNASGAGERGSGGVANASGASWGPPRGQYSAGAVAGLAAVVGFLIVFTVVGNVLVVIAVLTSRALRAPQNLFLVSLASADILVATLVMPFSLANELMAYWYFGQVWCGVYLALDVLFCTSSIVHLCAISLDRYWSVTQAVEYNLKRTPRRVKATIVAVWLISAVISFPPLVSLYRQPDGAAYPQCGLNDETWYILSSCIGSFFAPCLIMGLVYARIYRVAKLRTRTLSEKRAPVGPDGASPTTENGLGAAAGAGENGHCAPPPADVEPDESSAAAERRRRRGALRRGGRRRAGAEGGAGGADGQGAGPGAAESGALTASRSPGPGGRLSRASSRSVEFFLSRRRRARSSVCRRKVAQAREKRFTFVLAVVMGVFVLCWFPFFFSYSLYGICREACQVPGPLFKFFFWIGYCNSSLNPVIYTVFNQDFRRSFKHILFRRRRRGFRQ

Adenosine receptor A2a = Adenosine receptor A2a (Homo sapiens, UniProt P29274)
Sequence of Adenosine receptor A2a (P29274 whole entry): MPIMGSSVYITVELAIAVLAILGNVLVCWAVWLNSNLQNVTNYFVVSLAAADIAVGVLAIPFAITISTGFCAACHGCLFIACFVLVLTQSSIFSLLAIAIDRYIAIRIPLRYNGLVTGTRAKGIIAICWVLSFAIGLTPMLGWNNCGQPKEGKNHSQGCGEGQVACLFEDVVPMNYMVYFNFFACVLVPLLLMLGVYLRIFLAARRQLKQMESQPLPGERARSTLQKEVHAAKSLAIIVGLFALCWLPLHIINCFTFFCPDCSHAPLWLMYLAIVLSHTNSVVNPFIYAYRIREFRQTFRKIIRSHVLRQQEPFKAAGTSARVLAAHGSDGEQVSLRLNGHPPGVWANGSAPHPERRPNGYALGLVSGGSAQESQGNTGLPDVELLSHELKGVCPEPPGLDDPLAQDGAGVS

Bile salt export pump = Bile salt export pump (Homo sapiens, UniProt O95342); assay type: functional
Sequence of Bile salt export pump (O95342 whole entry): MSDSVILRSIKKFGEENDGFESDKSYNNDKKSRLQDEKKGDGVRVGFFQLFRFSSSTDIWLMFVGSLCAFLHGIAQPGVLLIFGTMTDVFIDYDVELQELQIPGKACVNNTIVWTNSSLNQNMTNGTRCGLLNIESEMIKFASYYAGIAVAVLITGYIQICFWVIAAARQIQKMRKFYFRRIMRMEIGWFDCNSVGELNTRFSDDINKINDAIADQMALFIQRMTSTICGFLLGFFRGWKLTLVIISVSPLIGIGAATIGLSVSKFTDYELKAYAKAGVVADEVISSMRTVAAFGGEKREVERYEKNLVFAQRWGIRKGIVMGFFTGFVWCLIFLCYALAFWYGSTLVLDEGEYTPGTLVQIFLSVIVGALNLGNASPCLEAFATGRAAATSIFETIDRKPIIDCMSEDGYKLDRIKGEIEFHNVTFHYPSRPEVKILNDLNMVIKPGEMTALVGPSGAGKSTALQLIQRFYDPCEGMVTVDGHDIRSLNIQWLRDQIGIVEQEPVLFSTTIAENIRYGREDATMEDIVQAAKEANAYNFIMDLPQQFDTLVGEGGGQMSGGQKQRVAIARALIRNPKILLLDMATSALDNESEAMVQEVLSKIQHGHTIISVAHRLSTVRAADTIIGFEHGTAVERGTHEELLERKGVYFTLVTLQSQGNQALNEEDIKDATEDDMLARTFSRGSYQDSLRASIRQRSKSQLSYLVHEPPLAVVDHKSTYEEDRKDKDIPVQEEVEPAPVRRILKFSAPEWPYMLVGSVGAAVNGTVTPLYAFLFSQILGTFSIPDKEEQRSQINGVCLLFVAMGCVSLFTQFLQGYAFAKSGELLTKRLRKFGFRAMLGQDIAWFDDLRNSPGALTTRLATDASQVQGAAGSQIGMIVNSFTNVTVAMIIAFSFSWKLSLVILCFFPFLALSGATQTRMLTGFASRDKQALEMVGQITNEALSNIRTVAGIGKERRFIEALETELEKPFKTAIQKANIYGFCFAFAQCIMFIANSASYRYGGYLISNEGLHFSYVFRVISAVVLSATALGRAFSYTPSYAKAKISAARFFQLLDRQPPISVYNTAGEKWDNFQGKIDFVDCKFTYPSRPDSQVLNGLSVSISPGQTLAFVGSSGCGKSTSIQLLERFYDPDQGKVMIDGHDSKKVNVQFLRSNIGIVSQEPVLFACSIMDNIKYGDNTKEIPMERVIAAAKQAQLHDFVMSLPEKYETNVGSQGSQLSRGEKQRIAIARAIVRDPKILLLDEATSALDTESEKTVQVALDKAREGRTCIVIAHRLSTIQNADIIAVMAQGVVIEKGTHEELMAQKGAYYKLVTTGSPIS

[9] = biological target: T3, Muscarinic acetylcholine receptor M1; assay type: functional, cell-based; remark: listed apart in the source
[10] = biological target: Delta-type opioid receptor (Homo sapiens, UniProt P41143)
Sequence of Delta-type opioid receptor (P41143 whole entry): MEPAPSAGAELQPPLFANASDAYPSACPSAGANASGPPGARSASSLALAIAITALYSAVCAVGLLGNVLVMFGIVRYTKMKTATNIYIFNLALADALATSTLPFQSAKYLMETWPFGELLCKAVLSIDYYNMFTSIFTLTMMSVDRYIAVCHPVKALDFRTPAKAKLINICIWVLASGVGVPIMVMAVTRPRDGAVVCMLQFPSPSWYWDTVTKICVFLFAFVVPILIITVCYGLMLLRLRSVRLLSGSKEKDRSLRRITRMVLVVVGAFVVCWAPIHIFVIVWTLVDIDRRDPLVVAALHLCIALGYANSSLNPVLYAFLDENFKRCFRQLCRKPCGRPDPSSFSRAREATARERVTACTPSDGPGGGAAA
Note: assay procedure not described here.

Sequence of Sodium-dependent noradrenaline transporter (P23975 whole entry): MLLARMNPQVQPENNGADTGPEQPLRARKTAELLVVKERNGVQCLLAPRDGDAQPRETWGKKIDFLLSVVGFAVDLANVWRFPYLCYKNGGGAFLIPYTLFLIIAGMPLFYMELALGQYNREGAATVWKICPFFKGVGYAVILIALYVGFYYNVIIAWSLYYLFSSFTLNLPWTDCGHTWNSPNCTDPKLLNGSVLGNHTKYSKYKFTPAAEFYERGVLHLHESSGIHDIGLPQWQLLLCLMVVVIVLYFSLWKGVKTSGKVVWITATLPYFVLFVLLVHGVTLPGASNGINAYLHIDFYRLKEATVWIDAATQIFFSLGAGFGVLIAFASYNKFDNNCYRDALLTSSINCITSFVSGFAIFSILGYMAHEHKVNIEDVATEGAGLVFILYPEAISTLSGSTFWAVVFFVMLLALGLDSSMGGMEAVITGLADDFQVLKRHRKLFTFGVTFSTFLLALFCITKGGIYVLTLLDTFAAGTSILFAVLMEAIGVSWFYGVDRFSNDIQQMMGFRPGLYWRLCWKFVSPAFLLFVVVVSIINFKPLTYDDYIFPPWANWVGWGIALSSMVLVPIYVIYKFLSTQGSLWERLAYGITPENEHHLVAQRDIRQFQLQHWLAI

| SMILES | AC50 [1] [µM] | AC50 [2] [µM] | AC50 (Progesterone receptor) [µM] | AC50 (Melanocortin receptor 3) [µM] | AC50 [3] [µM] | AC50 [4] [µM] | AC50 [5] [µM] | AC50 (Motilin receptor) [µM] | AC50 [6] [µM] | AC50 [7] [µM] | AC50 [8] [µM] | AC50 (Adenosine receptor A2a) [µM] | AC50 (Bile salt export pump) [µM] | AC50 [9] [µM] | AC50 [10] [µM] |
| --- | --- | --- | --- | --- | --- | --- | --- | --- | --- | --- | --- | --- | --- | --- | --- |
| CCCc1nc2c(C)cc(-c3nc4ccccc4n3C)cc2n1Cc1ccc(-c2ccccc2C(=O)O)cc1 | > 30 | 3 | > 30 | > 30 | 17.6 | > 30 | > 30 | > 30 | > 30 | > 30 | 12.5 | > 30 | 5 |  |  |
| CC(=O)NO [ACETOHYDROXAMIC ACID] |  |  |  |  | > 30 |  |  |  |  |  |  |  | > 300 | > 30 |  |
| C[C@H]1CN(C[C@H](Cc2ccccc2)C(=O)NCC(=O)O)CC[C@@]1(C)c1cccc(O)c1 [ALVIMOPAN] |  |  |  |  | > 30 |  |  |  |  |  |  |  | > 300 | > 30 |  |
| Cc1cc(=O)oc2cc(O)ccc12 [HYMECROMONE] |  |  |  |  | > 30 |  |  |  |  |  |  |  | > 300 | > 30 |  |
| COc1cc(C(C)=O)ccc1OCCCN1CCC(c2noc3cc(F)ccc23)CC1 [ILOPERIDONE] | 1.63 | 0.0092 | > 30 | > 30 | > 10 | > 10 | > 30 | > 30 | > 30 |  | 0.018 | > 30 | 40 | > 10 | > 30 |
| C[N+]1(C)CCCC(OC(=O)C(O)(c2ccccc2)c2ccccc2)C1 (stereo not drawn) [MEPENZOLATE] |  |  |  |  | > 30 |  |  |  |  |  |  |  | > 300 | > 30 |  |
| CN(C)c1ccc(O)c2c1C[C@H]1C[C@H]3[C@H](N(C)C)C(O)=C(C(N)=O)C(=O)[C@@]3(O)C(O)=C1C2=O [MINOCYCLINE] |  |  |  |  | > 30 |  |  |  |  |  |  |  | 83 | > 30 |  |
| C=CC(=O)Nc1cccc(Oc2nc(Nc3ccc(N4CCN(C)CC4)cc3)nc3ccsc23)c1 [OLMUTINIB] |  |  |  |  | > 30 |  |  |  |  |  |  |  | 13 | 2.29 |  |
| CN(CCOc1ccc(CC2SC(=O)NC2=O)cc1)c1ccccn1 (stereo not drawn) [ROSIGLITAZONE] | > 30 | 11 | > 30 | 20.8 |  | > 30 | > 30 | > 30 | > 30 | > 30 | > 30 | > 30 | 1 |  | > 30 |
| Cc1ccccc1C(=O)Nc1ccc(C(=O)N2CCCC(O)c3cc(Cl)ccc32)c(C)c1 (stereo not drawn) [TOLVAPTAN] |  |  |  |  | > 30 |  |  |  |  |  |  |  | 7.87 | 11.3 |  |
| O=C1Cc2cc(CCN3CCN(c4nsc5ccccc45)CC3)c(Cl)cc2N1 [ZIPRASIDONE] | 0.89 | 0.684 |  | > 30 | > 30 |  | > 10 | > 10 | > 30 | > 10 |  | > 30 | 18 | 12.9 | > 30 |
